Experimental data taken from patent publication EP0051852A1, “Pyrimido(4,5-b)(1,4)thiazines and process for their preparation” (Stiftung Forschungsinstitut Borstel, priority 1980, dated 1982).

Test system: E.coli(mutaflor)
Assay: Bacterial growth kinetics, Coulter Counter (total cell count)
Type: cell-based
Design: unit not given here
Settings: Coulter Counter (Gesamtkeimzahl); 75.0 µmol/l PTZ alone; 37°C, modified Sauton medium
Source text: 2,4-Diamino-5-(3',4',5'-trimehoxybenzvl)-pyrimidins (TMP) können auf ihre eigene und in Kombination potenzierte antimikrobielle Wirkung mit Hilfe der Bakterienvermehrungskinetik wie folgt geprüft werden: • Es werden zu Bakterienkulturen (Beispiel E.coli) in der logarithmischen Wachstumsphase die genannten Inhibitoren allein oder in den oben beschriebenen Kombinationen hinzugefügt. Die Veränderung der Zahl der Bakterien als Funktion der Zeit wird mit einem Coulter Counter (Gesamtkeimzahl) bzw. mit Hilfe der Kolonienzählung (Plattentest,Lebendkeimzahl) ermittelt. Die Vermehrungskurven werden bei Abwesenheit und bei Anwesenheit der Hemmstoffe und ihrer oben beschriebenen Kombinationen ermittelt. Die aus ihnen ermittelten Änderungen in den Vermehrungsgeschwindigkeiten sin^dein Maß für die antibakterielle Wirkung.
TMP wurde 1,5 Stunden später als die anderen Verbindungen der Kultur zugesetzt.

Q: Nc1nc(O)c2c(n1)SCC(CO)=N2 [PTZ, 2-Amino-4-hydroxy-6-hydroxymethyl-7H-pyrimido[4,5b][1,4]thiazin] was tested. Which “beobachtete Vermehrungsgeschwindigkeitskonstanten kbeob.” value did it give?
A: Its value is 3.82.
